Article PMC2782520 (Biochemistry, 2009)

Tests used:
[1] = target: ERβ LBD (amino acids 257–502) (Homo sapiens, UniProt Q92731); experiment: Differential HDX mass spectrometry of ERβLBD with and without ligand; assay type: binding; details: for Average difference in deuterium levels, LOOP 271-294 / Average difference in deuterium levels, LOOP 271-295 / Average difference in deuterium levels, LOOP 273-294 / Average difference in deuterium levels, LOOP 273-295 / Average difference in deuterium levels, LOOP 274-295 / Average difference in deuterium levels, LOOP 282-294 / Average difference in deuterium levels, LOOP 282-295: ERβLBD:ligand 1:10, average of 1, 30, 60, 900, 4200 sec, negative = protection
ERβ LBD (amino acids 257–502), sequence (Q92731 257-502): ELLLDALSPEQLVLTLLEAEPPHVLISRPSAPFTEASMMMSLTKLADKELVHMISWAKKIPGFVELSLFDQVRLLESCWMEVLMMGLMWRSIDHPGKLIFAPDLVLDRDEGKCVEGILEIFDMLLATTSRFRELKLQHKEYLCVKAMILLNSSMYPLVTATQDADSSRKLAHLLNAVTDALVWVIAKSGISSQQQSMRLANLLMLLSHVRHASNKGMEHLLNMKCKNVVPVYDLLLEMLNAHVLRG

ERβ [2] = target: T1, ERβ (Homo sapiens, UniProt Q92731); experiment: Cell based functional assay, ERE-luciferase in HEK 293 cells, agonist mode; details: for ERβ Agonist % stim: % stimulation versus DES maximum response; for EC50: read-out: ERβ Agonist EC50, ERE-luciferase, 24 h
T1 sequence (Q92731 whole entry): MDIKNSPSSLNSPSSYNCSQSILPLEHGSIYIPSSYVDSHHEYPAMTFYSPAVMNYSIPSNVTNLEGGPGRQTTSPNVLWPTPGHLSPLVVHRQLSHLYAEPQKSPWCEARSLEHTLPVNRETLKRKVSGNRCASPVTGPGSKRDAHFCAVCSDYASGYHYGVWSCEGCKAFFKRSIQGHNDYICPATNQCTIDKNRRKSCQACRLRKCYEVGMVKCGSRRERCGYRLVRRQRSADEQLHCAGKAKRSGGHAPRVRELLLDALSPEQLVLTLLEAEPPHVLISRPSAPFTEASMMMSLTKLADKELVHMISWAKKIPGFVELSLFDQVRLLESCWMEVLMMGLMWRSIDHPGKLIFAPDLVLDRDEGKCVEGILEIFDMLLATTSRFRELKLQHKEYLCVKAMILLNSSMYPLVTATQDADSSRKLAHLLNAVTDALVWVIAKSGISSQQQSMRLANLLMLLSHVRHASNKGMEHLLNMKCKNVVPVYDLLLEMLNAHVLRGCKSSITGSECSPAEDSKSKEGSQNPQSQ

ERβ [3] = target: T1, ERβ; experiment: Cell based functional assay, ERE-luciferase in HEK 293 cells, antagonist mode; details: for ERβ Antag % inhib.: HEK 293 cells, ERE-luciferase
ER β = details: ERβ versus ERα; cited from earlier work
ERα = target: T2, ERα (Homo sapiens, UniProt P03372); experiment: ER competition binding assay
T2 sequence (P03372 1-595): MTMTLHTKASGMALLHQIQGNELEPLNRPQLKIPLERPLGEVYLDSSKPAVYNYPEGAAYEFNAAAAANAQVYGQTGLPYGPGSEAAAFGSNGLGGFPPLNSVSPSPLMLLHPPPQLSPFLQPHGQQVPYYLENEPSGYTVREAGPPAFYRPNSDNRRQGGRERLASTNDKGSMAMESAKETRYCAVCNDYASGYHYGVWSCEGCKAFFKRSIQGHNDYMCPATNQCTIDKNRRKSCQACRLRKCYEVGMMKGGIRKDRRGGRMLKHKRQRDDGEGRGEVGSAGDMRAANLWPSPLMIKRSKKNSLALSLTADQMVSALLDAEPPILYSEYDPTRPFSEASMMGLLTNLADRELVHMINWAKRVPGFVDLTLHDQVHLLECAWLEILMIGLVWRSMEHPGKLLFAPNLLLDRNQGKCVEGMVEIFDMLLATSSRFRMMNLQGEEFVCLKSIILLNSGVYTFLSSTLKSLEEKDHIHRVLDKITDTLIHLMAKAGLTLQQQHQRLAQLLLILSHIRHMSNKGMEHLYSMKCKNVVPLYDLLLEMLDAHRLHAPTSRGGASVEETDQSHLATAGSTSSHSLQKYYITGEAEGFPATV

ERβ [4] = target: T1, ERβ; experiment: ER competition binding assay

| Structure (SMILES) | Average difference in deuterium levels, LOOP 271-294 [1] [%] | Average difference in deuterium levels, LOOP 271-295 [1] [%] | Average difference in deuterium levels, LOOP 273-294 [1] [%] | Average difference in deuterium levels, LOOP 273-295 [1] [%] | Average difference in deuterium levels, LOOP 274-295 [1] [%] | Average difference in deuterium levels, LOOP 282-294 [1] [%] | Average difference in deuterium levels, LOOP 282-295 [1] [%] | ERβ Agonist % stim (ERβ [2]) [%] | Protection to exchange, β-sheet1/β-sheet2 region ([1]; amino acid 355–362 of ERβLBD, p<0.001, positive = protection) | Protection (stabilization) of helix 3 to H/D exchange, ERβ ([1]; helix 3, amino acids 296–309 in ERβ, positive = protection) [%] | ERβ Antag % inhib. (ERβ [3]) [%] | Binding to ER β tighter than to ERα (ER β) | EC50 (ERβ [2]) [nM] | Ki (ERα) [nM] | Ki (ERβ [4]) [nM] | IC50 (ERβ [3]) [nM] |
| --- | --- | --- | --- | --- | --- | --- | --- | --- | --- | --- | --- | --- | --- | --- | --- | --- |
| C[C@]12CC[C@@H]3c4ccc(O)cc4CC[C@H]3[C@@H]1CC[C@@H]2O [Estradiol, 17β-estradiol] | −6 | −7 | −9 | −6 | −8 | −7 | −6 | 100 | – | – | – | – | – | – | – | – |
| CC/C(=C(\c1ccc(O)cc1)c1ccc(OCCN(C)C)cc1)c1ccccc1 [4-hydroxy tamoxifen, 4-hydroxytamoxifen] | −8 | −11 | −12 | −11 | −12 | −10 | −11 | – | ~ 20% | 13 | – | – | – | – | – | – |
| C[C@]12CC[C@@H]3c4ccc(O)cc4C[C@@H](CCCCCCCCC[S+]([O-])CCCC(F)(F)C(F)(F)F)[C@H]3[C@@H]1CC[C@@H]2O (stereo partly drawn) [ICI, ICI 182780] | −9 | −10 | −11 | −10 | −11 | −9 | −10 | – | – | – | 109 | – | – | – | – | – |
| Oc1ccc2c(c1)CC[C@H](c1ccccc1)[C@@H]2c1ccc(OCCN2CCCC2)cc1 [Lasodoxifene, lasofoxifene] | −11 | −11 | −12 | −9 | −12 | −9 | −9 | – | – | – | 103 | – | – | – | – | – |
| O=c1c(-c2ccc(O)cc2)coc2cc(O)cc(O)c12 [Genistein, genistein] | – | – | – | – | – | – | – | – | – | – | – | approximately 10 fold | – | – | – | – |
| O=C(c1ccc(OCCN2CCCCC2)cc1)c1c(-c2ccc(O)cc2)sc2cc(O)ccc12 [Raloxifene, raloxifene] | −7 | −7 | −9 | −7 | – | −6 | −7 | – | – | – | – | – | – | – | – | – |
| O=C(c1ccc(O)cc1)c1c(-c2ccc(O)cc2)sc2cc(O)ccc12 [compound 88074] | −7 | −8 | −9 | −7 | −8 | −7 | −7 | 104 | – | – | – | – | 232 | – | – | – |
| O=C(c1ccc(OCCN2CCCC2)cc1)c1c(-c2ccc(O)cc2)sc2cc(O)ccc12 [compound 117018] | −7 | −7 | −8 | −7 | −8 | −7 | −8 | – | – | – | 108 | – | > 10000 | 0.32 | 1.3 | 204 |
| CC/C(=C(/CC)c1ccc(O)cc1)c1ccc(O)cc1 [DES, Diethylstilbestrol] | −10 | −10 | −12 | −10 | −10 | −8 | −10 | 97 | – | – | – | – | – | – | – | – |
